Source: a melting point compilation (Tetko et al.)

SMILES	melting point
COC(=O)c1cc(OC)c(C)c(OC)c1	104 °C
COc1c(Cl)c(Cl)c(O)c(Cl)c1Cl	116 °C
CC(C)NCC1CCc2cc(CO)c([N+](=O)[O-])cc2N1 (stereo not drawn)	148 °C
CC1C=C(CO)N=N1 (stereo not drawn)	79 °C
Clc1ccc2oc3c(Cl)c(Cl)c(Cl)c(Cl)c3c2c1	178 °C
CSc1ccc(C(F)(F)F)cc1NN	86 to 88 °C
CC(C(=O)Nc1ccc(F)c(Cl)c1)(C(F)(F)F)C(F)(F)F	72 °C
CC(=O)Oc1cccc(C#N)c1	60 °C
CCC(C)CC(=O)O (racemic)	-41 °C
CC(C)(C)CC(C)(C)c1ccc(O)cc1	84.5 °C
CCCCC(C)(O)CC (stereo not drawn)	-83 °C
O=C1CNC(=O)CN1	300 °C
COC(=O)[C@@]12[C@H]3c4c(c(-c5ccccc5)c5ccccc5c4-c4ccccc4)[C@@H]1C=C[C@]32C(=O)OC	210 °C
O=C(O)CSc1ccc(F)cc1	78 °C
O=C(O)c1ccc(=O)[nH]c1	314 to 316 °C
O=C(O)C=CC(=O)Nc1ccc(I)cc1	194 °C
N#Cc1c(Cl)c(Cl)c(Cl)c(C#N)c1Cl	252 °C
NC(=S)c1ccc(OCC(F)(F)F)nc1	120 to 123 °C
C=CC1CC=CCC1 (stereo not drawn)	-109 °C
O=Cc1cnc(Br)s1	94 °C
Brc1ccc2nonc2c1	72 to 74 °C
CC1(C)CCC2(C(=O)O)C(O)CC3(C)C(=CCC4C5(C)CCC(O)C(C)(C=O)C5CCC43C)C2C1 (stereo not drawn)	294 °C
O=C(O)c1ccc(O)c(F)c1F	207 °C

SMILES	melting point
C=CC1(C)C=C2CCC3C(C)(C(=O)O)CCCC3(C)C2CC1 (stereo not drawn)	218 °C
CCOc1ccc(C=O)cc1OCC	22 °C
N#Cc1ccncc1Cl	72.5 °C
CCCCCCCCCCOC(=O)CCCCC(=O)OCCCCCCCC	-50 °C
CCC(N)C(=O)O (stereo not drawn)	304 °C
CC(=O)C(C(=O)OC1CC(C)CCC1C(C)C)C(C)C(C(C)=O)/C(=N\NC(N)=O)OC1CC(C)CCC1C(C)C (stereo not drawn)	200 °C
CCc1nc(CC)nc(NS(=O)(=O)c2ccc(N)cc2)n1	187 °C
CCOC(CNC(=O)C(N)=O)OCC	138 to 140 °C
CC(C)(CO)NCC(O)CS(=O)(=O)O (stereo not drawn)	215 to 225 °C
Cc1nc(Cl)nc(N)c1N	249 to 252 °C
C[Si](C)(C)O[Si](C)(C)O[Si](C)(C)O[Si](C)(C)O[Si](C)(C)C	-80 °C
COc1cc(CCl)c(OC)cc1CCl	164 to 165 °C
CCCCCCCCOC(C)=O	-38.5 °C
c1ccc2c(c1)oc1ccccc12	86.5 °C
CC(C)=CCCC(C)=CCCC(C)=CCO	25 °C
O=c1[nH]c(=O)n(C2CCC(CO)O2)cc1Br (stereo not drawn)	180 °C
CC1(C)SC2C(N)C(=O)N2C1C(=O)O (stereo not drawn)	198 to 200 °C
COc1ccc(C=C2SC(=NN=CC(C)C)NC2=O)cc1	258 to 260 °C
CCCCCCCCCCCCOc1ccc(N=Cc2ccc(N(C)C)cc2)cc1	94.5 °C
O=C(Cl)OCC1c2ccccc2-c2ccccc21	63 °C
O=C(C(C(=O)N1CCCCC1)c1ccccc1)N1CCCCC1	144 °C
ClCCc1ccccc1	-60 °C
O=P(O)(O)CCP(=O)(O)O	218 °C

SMILES	melting point
CSc1nc(N)nc(N2CCCCC2)n1	156 to 158 °C
CCC(N)CO (stereo not drawn)	-2 °C
CC(C)(C)C(O)C(=Cc1ccc(Cl)cc1)n1cncn1 (stereo not drawn)	153 °C
O=c1/c(=C/c2ccc3c(c2)OCO3)sc2n1CCCN=2	151 °C
CN1CCN(Cc2cccc(CO)c2)CC1	51 to 52 °C
CCCCCCC(=O)CCCCC	10 °C
CC(=O)OC1(C(C)=O)CCC2C3CC(C)C4=CC(=O)CCC4(C)C3CCC21C (stereo not drawn)	206 °C
COc1ccc(CCl)c(C)c1CCl	97 °C
CCOC(=O)NNC(=O)Nc1ccc(Cl)cc1	194 °C
O=[N+]([O-])c1ncccc1Br	104 °C
N#CCN	101 °C
CC1=C(O)C(=O)CC1	106 °C
N#CC1(c2ccc(Cl)cc2)CC1	52 to 56 °C
O=[N+]([O-])C=Cc1ccccc1C(F)(F)F	60 to 62 °C
Nc1nc(=O)c2[nH]nnc2[nH]1	300 °C
COc1ccc(C(C)=NO)cc1	80 °C
CCC(C)c1cc([N+](=O)[O-])cc([N+](=O)[O-])c1OC(C)=O (stereo not drawn)	26 °C
O=C1CC2(CCCC2)CC(=O)N1	153 to 155 °C
Cc1nc(C(=O)O)c(C)o1	232 to 233 °C
CC1=CCC=C(C)CCC=C(C)CCC(C(C)C)C=C1 (stereo not drawn)	59 to 61 °C
C[C@]12CCC(=O)C[C@H]1CC[C@@H]1[C@@H]2CC[C@]2(C)CCC[C@@]12O	139 to 140 °C
Clc1cncc(Cl)c1Cl	72 °C

Continued, values first:

melting point	SMILES
92 to 93 °C	CCOC(=O)c1c(N)sc(C)c1-c1ccccc1
287 to 289 °C	O=c1nc(SCc2ccc(Cl)cc2)c2c([nH]1)CCCC2
81 °C	CCC(Oc1ccccc1)C(=O)O (stereo not drawn)
165 °C	O=C(c1ccc2ccccc2c1)c1noc(-c2ccc(Cl)cc2)c1S(=O)(=O)c1ccccc1
180 °C	O=C1OC(c2ccccc2)=N/C1=C/c1ccc(-c2ccc(Br)cc2)o1
314 °C	S=c1nnc(-c2ccccc2)c(Nc2ccc(Cl)cc2)[nH]1
135 to 136 °C	N#Cc1cc(N)ccc1-n1cccc1
210 to 215 °C	Nc1ccc(C(=O)O)c(Cl)c1
144 to 145 °C	COc1ccc(C(=O)C=Cc2ccc(-c3ccccc3OC)o2)cc1OC
174 to 178 °C	Cc1cc2oc(-c3ccccc3)cc(=O)c2cc1Cl
149 °C	O=C(Oc1ccc(Cl)cc1)c1ccc(Oc2ccc(C(=O)Oc3ccc(Cl)cc3)cc2)cc1
164 °C	O=C(O)C(Cc1cc(I)c(O)c(I)c1)c1ccccc1 (stereo not drawn)
244 °C	Clc1ccc(-c2ccc(Br)nc2)cn1
43 to 45 °C	Cc1ccc(F)cc1C#N
150 to 152 °C	O=[N+]([O-])c1ccc2ncoc2c1
126 to 128 °C	CCOC(=O)CC1Sc2ccccc2NC1=O (stereo not drawn)
181 to 182 °C	O=C1OC(c2ccc(Cl)cc2)=NC1=Cc1ccccc1
111 °C	O=C(Cc1ccccc1)c1ccc(Br)cc1
45 to 47 °C	O=C(OCc1ccccc1)c1cnc(Cl)nc1C(F)(F)F
193 °C	COc1cc2cncc(Cc3ccccc3)c2cc1O

melting point	SMILES
124 °C	CC(=O)CCc1oc2ccc([N+](=O)[O-])cc2c1-c1ccc(C)o1
45 to 46 °C	Cc1cc(Br)ccc1N=C=S
155 °C	O=c1[nH]n(C2C=CC3C4C=CC(C4)C32)c(=O)n1-c1ccccc1 (stereo not drawn)
119 °C	Cc1cccnc1C(=O)O
215 to 217 °C	O=C(Nc1nnc(-c2ccc(Cl)cc2)o1)c1cccc(C(F)(F)F)c1
360 °C	O=C1OC2(c3ccc(O)cc3Oc3cc(O)ccc32)c2ccc(N=C=S)cc21
120 to 122 °C	Nc1ccc(Oc2c(Cl)cccc2Cl)nc1
212 to 214 °C	COc1ccc2oc(C(=O)O)cc2c1
150 °C	O=C(OCC(=O)N1CCC1C(=O)O)c1ccccc1 (stereo not drawn)
176 °C	Cc1cc(C(F)(F)F)n2nc(-c3ccc(Cl)cc3)cc2n1
164 °C	O=C(O)c1c(Cl)cccc1[N+](=O)[O-]
44 to 49 °C	Cc1cc(Br)cc(Br)c1N
112 to 115 °C	COC(=O)c1[nH]c2ccccc2c1C(=O)OC
207 to 209 °C	O=C(O)c1ccc(O)cc1Cl
104 °C	Clc1c2ccccc2cc2ccccc12
255 to 258 °C	CC(=O)Nc1cc(Cl)c(Cl)cc1NC(C)=O
63.5 °C	Clc1ccc2cccc(Cl)c2c1
233 °C	Cc1nc(CC#N)sc1/N=N/c1ccc([N+](=O)[O-])cc1
65 °C	CC1CCC(C(C)C)C(OC(=O)C(=Cc2ccccc2)C(=O)c2ccccc2)C1 (stereo not drawn)
178 to 179 °C	O=[N+]([O-])c1ccc(/C=C/c2ccc3c(c2)OCO3)c([N+](=O)[O-])c1

melting point	SMILES
204 to 207 °C	O=C(O)c1cc2cc(OC(F)(F)F)ccc2[nH]1
136 to 137 °C	O=C(Cl)c1cccc(-c2ncccn2)c1
55 to 59 °C	O=C(CCCc1ccccc1)c1ccccc1
62 to 63 °C	COC(=O)c1ccccc1S(=O)(=O)Cl
144 to 146 °C	Cc1ccc(-n2ncc(Cl)c(Cl)c2=O)cc1
226 °C	C(=N\c1ccc(-c2ccc(/N=N/c3ccccc3)cc2)cc1)/c1ccccc1
151 °C	COc1ccc(/C=C(\Oc2ccccc2)c2nc3ccccc3s2)cc1
70 to 73 °C	O=C(Cl)C1=Cc2ccccc2OC1
233 °C	CC(C)CC(NC(=O)C(O)C(N)Cc1ccccc1)C(=O)O (stereo not drawn)
207 °C	COc1cc2c(Cc3ccccc3)cncc2cc1O
214 to 216 °C	O=C(O)c1cscc1S(=O)(=O)c1ccc(Cl)cc1
133 °C	CCN(CC)Cc1c(N)c2ccccc2oc1=O
110 °C	CCN(C(=O)Oc1cccc(NC(=O)OC(C)C)c1)c1ccccc1
164 to 168 °C	O=C1Nc2ccccc2CCC1Br (stereo not drawn)
214 °C	O=C1c2cc3ccccc3cc2-c2ccc3ccccc3c21
115 to 117 °C	NC(=NO)c1cccc(Cl)c1
236 °C	CC(=O)c1ccc2[nH]c(=O)oc2c1
55 °C	CC(=O)Oc1cccc(O)c1
-19 °C	CCCCCCOc1ccccc1
120 °C	O=C(c1ccc2ccccc2c1)c1noc(-c2ccc3ccccc3c2)c1S(=O)(=O)c1ccccc1
